The source of these data is ChEMBL document CHEMBL1159142, “A convenient degradation of polyoxin D to uracil polyoxin C: access to key intermediates and synthesis of antifungal -aminoacyl derivatives of UPOC” (Bioorg Med Chem Lett, 1993).

SMILES strings stand for the structures.

For this experiment, the system named is Candida albicans. The experiment can be described thus: Geometric mean minimum inhibitory concentration (GMMIC) for whole cell activity against Candida albicans. The class given is functional.

In turn, `NC(=O)OC[C@H](O)[C@@H](O)[C@H](N)C(=O)N[C@H](C(=O)O)[C@H]1O[C@@H](n2cc(C(=O)O)c(=O)[nH]c2=O)[C@H](O)[C@@H]1O` showed a GMMIC of 153 µg/mL.

The compound `CSCCC(N)C(=O)N[C@H](C(=O)O)[C@H]1O[C@@H](n2ccc(=O)[nH]c2=O)[C@H](O)[C@@H]1O` (some centres not stated) showed a GMMIC of 49 µg/mL.

`CC[C@@H](O)C(N)C(=O)N[C@H](C(=O)O)[C@H]1O[C@@H](n2ccc(=O)[nH]c2=O)[C@H](O)[C@@H]1O` (some centres not stated) displayed a GMMIC of more than 2048 µg/mL.

In turn, `CC[C@H](C)C(N)C(=O)N[C@H](C(=O)O)[C@H]1O[C@@H](n2ccc(=O)[nH]c2=O)[C@H](O)[C@@H]1O` (some centres not stated) had a GMMIC of more than 2048 µg/mL.

`CC[C@@H](C)C(N)C(=O)N[C@H](C(=O)O)[C@H]1O[C@@H](n2ccc(=O)[nH]c2=O)[C@H](O)[C@@H]1O` (some centres not stated) displayed a GMMIC of 44 µg/mL.

As for `N[C@@H](CCc1ccc(O)cc1)C(=O)N[C@H](C(=O)O)[C@H]1O[C@@H](n2ccc(=O)[nH]c2=O)[C@H](O)[C@@H]1O`, the GMMIC stood at 128 µg/mL.

`N[C@H](C(=O)N[C@H](C(=O)O)[C@H]1O[C@@H](n2ccc(=O)[nH]c2=O)[C@H](O)[C@@H]1O)c1csc(O)c1` gave a GMMIC of more than 2048 µg/mL.

`N[C@@H](Cc1c[nH]c2ccccc12)C(=O)N[C@H](C(=O)O)[C@H]1O[C@@H](n2ccc(=O)[nH]c2=O)[C@H](O)[C@@H]1O` yielded a GMMIC of 2048 µg/mL.

As for `N[C@@H](Cc1c[nH]c2ccc(F)cc12)C(=O)N[C@H](C(=O)O)[C@H]1O[C@@H](n2ccc(=O)[nH]c2=O)[C@H](O)[C@@H]1O`, the GMMIC is more than 2048 µg/mL.

As to `COc1ccc2[nH]cc(C[C@H](N)C(=O)N[C@H](C(=O)O)[C@H]3O[C@@H](n4ccc(=O)[nH]c4=O)[C@H](O)[C@@H]3O)c2c1`, the GMMIC is more than 2048 µg/mL.

Turning to `N[C@@H](CCc1ccc(O)cn1)C(=O)N[C@H](C(=O)O)[C@H]1O[C@@H](n2ccc(=O)[nH]c2=O)[C@H](O)[C@@H]1O`, the GMMIC came to 118 µg/mL.

`NCC(=O)N[C@H](C(=O)O)[C@H]1O[C@@H](n2ccc(=O)[nH]c2=O)[C@H](O)[C@@H]1O` returned a GMMIC of more than 2048 µg/mL.

Turning to `C[C@H](Cc1ccc(O)cn1)[C@H](N)C(=O)N[C@H](C(=O)O)[C@H]1O[C@@H](n2ccc(=O)[nH]c2=O)[C@H](O)[C@@H]1O`, the GMMIC was 9.3 µg/mL.

In turn, `CC(C)[C@H](N)C(=O)N[C@H](C(=O)O)[C@H]1O[C@@H](n2ccc(=O)[nH]c2=O)[C@H](O)[C@@H]1O` showed a GMMIC of 87 µg/mL.

`C[C@H](Cc1ccc(O)cc1)[C@H](N)C(=O)N[C@H](C(=O)O)[C@H]1O[C@@H](n2ccc(=O)[nH]c2=O)[C@H](O)[C@@H]1O` showed a GMMIC of 35 µg/mL.

Compound `C[C@@H](Cc1ccc(O)cn1)[C@H](N)C(=O)N[C@H](C(=O)O)[C@H]1O[C@@H](n2ccc(=O)[nH]c2=O)[C@H](O)[C@@H]1O` returned a GMMIC of 51 µg/mL.

`C=C[C@@H](C)C(N)C(=O)N[C@H](C(=O)O)[C@H]1O[C@@H](n2ccc(=O)[nH]c2=O)[C@H](O)[C@@H]1O` (some centres not stated) had a GMMIC of 406 µg/mL.

The compound `N[C@@H](Cc1c[nH]c2ccc(O)cc12)C(=O)N[C@H](C(=O)O)[C@H]1O[C@@H](n2ccc(=O)[nH]c2=O)[C@H](O)[C@@H]1O` had a GMMIC of 27 µg/mL.

The compound `NC(Cc1c[nH]c2ccc(O)cc12)C(=O)NC[C@H]1OC(n2ccc(=O)[nH]c2=O)[C@H](O)[C@@H]1O` (some centres not stated) yielded a GMMIC of more than 2048 µg/mL.

`NC(Cc1c[nH]c2ccc(O)cc12)C(=O)N[C@H](CO)[C@H]1OC(n2ccc(=O)[nH]c2=O)[C@H](O)[C@@H]1O` (some centres not stated) registered a GMMIC of more than 2048 µg/mL.

As to `N[C@H](C(=O)O)[C@H]1OC(n2ccc(=O)[nH]c2=O)[C@H](O)[C@@H]1O` (some centres not stated), the GMMIC is more than 2048 µg/mL.

In the case of `C[C@@H]([C@H](N)C(=O)N[C@H](C(=O)O)[C@H]1O[C@@H](n2ccc(=O)[nH]c2=O)[C@H](O)[C@@H]1O)[C@H](O)c1ccc(O)cn1` [NIKKOMYCIN], the GMMIC turned out to be 6 µg/mL.
